Legend:
[1] = Inhibition of SARS-CoV PLpro expressed in Escherichia coli; set-up: species or system Severe acute respiratory syndrome-related coronavirus
[2] = target: T1, Replicase polyprotein 1ab (Severe acute respiratory syndrome coronavirus 2, UniProt P0DTD1); experiment: Inhibition of recombinant SARS-CoV-2 MPro incubated for 10 mins in presence of fluorogenic substrate
[3] = target: T1, Replicase polyprotein 1ab; experiment: Inhibition of SARS-CoV-2 MPro
[4] = target: T1, Replicase polyprotein 1ab; experiment: Inhibition of SARS-CoV-2 PLpro expressed in Escherichia coli
[5] = Inhibition of recombinant SARS-CoV MPro; set-up: species or system Severe acute respiratory syndrome-related coronavirus
[6] = Inhibition of recombinant MERS-CoV MPro; set-up: species or system Middle East respiratory syndrome-related coronavirus

Row | SMILES | IC50 [1] [nM] | IC50 [3] [nM] | also measured
1 | Cc1ccc(N)cc1C(=O)N[C@@H](C)c1cccc2ccccc12 | 600 |  | 
2 | O=C[C@@H](C[C@@H]1CCNC1=O)NC(=O)[C@@H](Cc1cccc(F)c1)NC(=O)c1cc2ccccc2[nH]1 |  | 40 | IC50 [2]: 40 nM
3 | CN(C)C(=O)COC(=O)Cc1ccc(OC(=O)c2ccc(NC(=N)N)cc2)cc1 [CAMOSTAT] |  | > 20000 | 
4 | COc1ccc(CNC(=O)C2CCN(Cc3cccc4ccccc34)CC2)cc1 | 59000 |  | 
5 | Cc1ccccc1C(=O)NC(C)c1ccc2ccccc2c1 (stereo unspecified) | 20000 |  | 
6 | CC(=O)Nc1ccc(C)c(C(=O)N[C@@H](C)c2cccc3ccccc23)c1 | 2600 |  | IC50 [4]: 5000 nM
7 | CC(C)(C)OC(=O)Nc1cccn([C@H](CC2CC2)C(=O)N[C@H](C[C@@H]2CCNC2=O)C(=O)C(=O)NCc2ccccc2)c1=O |  |  | IC50 [5]: 900 nM; IC50 [6]: 580 nM
8 | Cc1cccc(C)c1OCC(=O)N[C@@H](Cc1ccccc1)[C@@H](O)C[C@H](Cc1ccccc1)NC(=O)[C@H](C(C)C)N1CCCNC1=O [LOPINAVIR] |  | > 20000 | 
